ChEMBL document CHEMBL3414534, “Water-soluble isoindolo[2,1-a]quinoxalin-6-imines: in vitro antiproliferative activity and molecular mechanism(s) of action” (Eur J Med Chem, 2015)
In brackets after ≈: the same amount, converted by molar mass. Several values for one entry are separate records, joined by “and”; a condition that tells them apart may be missing. Equal entries are not always repeated. Activity calls are given as the source filed them. The rule behind the calls is not given here.

Experiments:
[1] = Binding affinity to Pu24 DNA (unknown origin) assessed as change in melting temperature at 5 uM at pH 7.4 by fluorescence melting assay
[2] = Binding affinity to double stranded DNA (unknown origin) assessed as change in melting temperature at 5 uM at pH 7.4 by fluorescence melting assay
[3] = Solubility in water at 25 degC sonicated for 10 mins by HPLC method; format: physicochemical
[4] = Growth inhibition of human NCI60 cells; format: functional
Homo sapiens [5] = organism: Homo sapiens; test: Binding affinity to human telomeric DNA sequence assessed as change in melting temperature at 5 uM at pH 7.4 by fluorescence melting assay
Tubulin (Homo sapiens) [6] = biological target: T1, Tubulin (Homo sapiens) (UniProt P68371+Q9H4B7+P0DPH7+P68366+Q13509+Q71U36+P04350+Q3ZCM7+P07437+P68363+Q9BQE3+Q6PEY2+Q13885+Q9BVA1+Q9BUF5); test: Induction of tubulin polymerization in human U2OS cells at cytotoxic IC50 level after 72 hrs by Western blotting method; format: cell-based
U2OS [7] = test: Induction of apoptosis in human U2OS cells assessed as increase in caspase-3 catalytic activity at cytotoxic IC50 level after 72 hrs; format: functional
Tubulin (Homo sapiens) [8] = biological target: T1, Tubulin (Homo sapiens); test: Inhibition of tubulin polymerization in human U2OS cells at cytotoxic IC50 level after 72 hrs by Western blotting method; format: cell-based
[9] = biological target: T2, DNA topoisomerase 1 (Homo sapiens) (UniProt P11387); test: Inhibition of human recombinant topoisomerase 1-dependent DNA cleavage using 751-bp BamHI-EcoRI fragment of SV40 DNA at 1 to 50 uM incubated for 30 mins by PAGE method
T2 sequence (whole entry): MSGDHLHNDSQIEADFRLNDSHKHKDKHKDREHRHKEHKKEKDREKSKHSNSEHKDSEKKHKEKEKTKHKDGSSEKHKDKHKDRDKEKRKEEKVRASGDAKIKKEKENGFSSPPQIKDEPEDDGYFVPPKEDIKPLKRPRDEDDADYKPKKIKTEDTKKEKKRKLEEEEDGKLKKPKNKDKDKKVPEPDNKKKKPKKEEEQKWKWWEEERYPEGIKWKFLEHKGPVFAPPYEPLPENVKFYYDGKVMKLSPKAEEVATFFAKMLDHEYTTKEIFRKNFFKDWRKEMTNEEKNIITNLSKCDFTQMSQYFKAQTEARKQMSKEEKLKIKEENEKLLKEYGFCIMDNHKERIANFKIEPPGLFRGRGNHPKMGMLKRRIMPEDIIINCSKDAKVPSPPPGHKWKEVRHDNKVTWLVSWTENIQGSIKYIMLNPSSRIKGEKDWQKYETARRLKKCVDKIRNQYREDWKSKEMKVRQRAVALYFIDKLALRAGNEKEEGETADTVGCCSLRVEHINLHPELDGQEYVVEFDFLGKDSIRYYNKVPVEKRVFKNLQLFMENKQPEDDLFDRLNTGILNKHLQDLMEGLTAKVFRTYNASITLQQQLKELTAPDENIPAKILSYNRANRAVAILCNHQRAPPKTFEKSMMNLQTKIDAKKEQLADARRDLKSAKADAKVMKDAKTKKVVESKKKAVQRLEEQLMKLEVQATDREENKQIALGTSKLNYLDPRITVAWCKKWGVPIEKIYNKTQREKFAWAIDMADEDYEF

U2OS [10] = test: Induction of telomere architecture perturbations in human U2OS cells assessed as increase in DNA topoisomerase 1 binding to telomeric sequences at cytotoxic IC50 level after 12 hrs by chromatin immunoprecipitation method; format: functional
U2OS [11] = test: Induction of telomere architecture perturbations in human U2OS cells assessed as displacement of human DNA topoisomerase 1 from telomeres at cytotoxic IC50 level after 24 hrs by chromatin immunoprecipitation method; format: functional
U2OS [12] = test: Induction of telomere architecture perturbations in human U2OS cells assessed as displacement of TRF2 from telomeres at cytotoxic IC50 level after 24 hrs by chromatin immunoprecipitation method; format: functional
U2OS [13] = test: Induction of telomere architecture perturbations in human U2OS cells assessed as displacement of hPOT1 from telomeres at cytotoxic IC50 level after 12 hrs by chromatin immunoprecipitation method; format: functional
U2OS [14] = test: Induction of telomere architecture perturbations in human U2OS cells assessed as displacement of hPOT1 from telomeres at cytotoxic IC50 level after 24 hrs by chromatin immunoprecipitation method; format: functional
U2OS [15] = test: Induction of cell cycle arrest in human U2OS cells assessed as accumulation at G2/M phase at cytotoxic IC50 level by propidium iodide staining based based cytofluorimetry; format: functional; settings: TDE = time-dependent effect
U2OS [16] = test: Induction of cell cycle arrest in human U2OS cells assessed as increase in accumulation at subG1 phase at cytotoxic IC50 level by propidium iodide staining based based cytofluorimetry; format: functional; settings: TDE = time-dependent effect
U2OS [17] = test: Growth inhibition of human U2OS cells after 72 hrs by coulter counter method; format: functional, cell-based
Calf thymus DNA = test: Binding affinity to calf thymus double stranded DNA assessed as induction of modification of dichroic signal by CD spectroscopy; format: nucleic-acid assay; settings: Bos taurus
U2OS [18] = test: Induction of telomere architecture perturbations in human U2OS cells assessed as displacement of hPOT1 from telomeres at cytotoxic IC50 level after 72 hrs by chromatin immunoprecipitation method; format: functional, cell-based
[19] = biological target: T2, DNA topoisomerase 1 (Homo sapiens); settings: 50 uM
Description: Inhibition of human recombinant topoisomerase 1-dependent DNA cleavage using 751-bp BamHI-EcoRI fragment of SV40 DNA at 50 uM incubated for 30 mins by PAGE method

Homo sapiens [20] = organism: Homo sapiens; test: Binding affinity to human telomeric DNA sequence Tel22 assessed as induction of modification of dichroic signal at 0 to 16 uM at pH 7.4 by CD spectroscopy

COc1ccc2cn3c4ccc(O)cc4[nH]c(=N)c3c2c1
ΔTm [1]: 0.2 °C
ΔTm [2]: 0.2 °C
solubility at 10 min [3]: 22.4 mM (≈ 6260 µg/mL)
GI50 ([4]; Homo sapiens, NCI60): 12.3 µM
ΔTm (Homo sapiens [5]): 1.9 °C

CC(=O)O[C@H]1C(=O)[C@@]2(C)[C@H]([C@H](OC(=O)c3ccccc3)[C@]3(O)C[C@H](OC(=O)[C@H](O)[C@@H](NC(=O)c4ccccc4)c4ccccc4)C(C)=C1C3(C)C)[C@]1(OC(C)=O)CO[C@@H]1C[C@@H]2O
Activity (Tubulin (Homo sapiens) [6]): Active
Activity (U2OS [7]): Active

CCC1=C[C@@H]2CN(C1)Cc1c([nH]c3ccccc13)[C@@](C(=O)OC)(c1cc3c(cc1OC)N(C)[C@H]1[C@@](O)(C(=O)OC)[C@H](OC(C)=O)[C@]4(CC)C=CCN5CC[C@]31[C@@H]54)C2
tubulin polymerization inhibition (active/inactive) (Tubulin (Homo sapiens) [8]): Active
Activity (U2OS [7]): Active

N=c1[nH]c2cc(Cl)c(Cl)cc2n2cc3ccccc3c12
ΔTm [1]: 1.1 °C
ΔTm [2]: 0 °C
ΔTm (Homo sapiens [5]): 0.3 °C

N=c1[nH]c2cc(O)ccc2n2cc3c(F)cccc3c12 [listing 1 of 2 here]
ΔTm [1]: 2 °C and 1 °C
ΔTm [2]: 0 °C
ΔTm (Homo sapiens [5]): 1 °C and 0.8 °C
inhibition of DNA cleavage (qualitative) [9]: Dose-dependent effect

CC(=O)O.COc1cc2cn3c4ccc(O)cc4[nH]c(=N)c3c2cc1OC
Activity (U2OS [10]): 77%
solubility at 10 min [3]: 14 mM
inhibition (INH) (U2OS [11]): 57%
GI50 [4]: < 3.31 µM
Activity (U2OS [12]): -66%
fold change (FC) (U2OS [7]): 17
Activity (U2OS [13]): -63%
Activity (U2OS [14]): -31%

COc1ccc2c(c1)[nH]c(=N)c1c3ccccc3cn21
ΔTm [1]: 2 °C
ΔTm [2]: 0.2 °C
ΔTm (Homo sapiens [5]): 1.4 °C

COc1ccc2c(c1)cn1c3ccc(OC)cc3[nH]c(=N)c21
ΔTm [1]: 1.1 °C
ΔTm [2]: 0 °C
Activity (U2OS [15]): tde
solubility at 10 min [3]: 13 mM (≈ 3810 µg/mL)
Activity (U2OS [16]): tde
inhibition (INH) (U2OS [11]): 57%
growth inhibition (GI) (U2OS [17]): Active
GI50 ([4]; Homo sapiens, NCI60): < 1.2 µM
Activity (U2OS [12]): -67%
Activity (Calf thymus DNA): inactive
tubulin polymerization inhibition (active/inactive) (Tubulin (Homo sapiens) [8]): Active
fold change (FC) (U2OS [7]): 13
Activity (U2OS [18]): inactive
ΔTm (Homo sapiens [5]): 1.2 °C
inhibition of DNA cleavage (qualitative) [9]: Dose-dependent effect

Cc1cc2cn3c4ccc(O)cc4[nH]c(=N)c3c2cc1C [listing 1 of 2 here]
solubility at 10 min [3]: 14.1 mM (≈ 3910 µg/mL)
GI50 [4]: < 1.45 µM

N=c1[nH]c2cc(O)ccc2n2cc3c(F)cccc3c12 [listing 2 of 2 here]
solubility at 10 min [3]: 23 mM (≈ 6150 µg/mL)
GI50 [4]: 31.6 µM

COc1ccc2c(c1)[nH]c(=N)c1c3cc(C)c(C)cc3cn21
ΔTm [1]: 2.1 °C
ΔTm [2]: 0.1 °C and 0 °C
solubility at 10 min [3]: 7.8 mM (≈ 2270 µg/mL)
GI50 ([4]; Homo sapiens, NCI60): < 3.8 µM
ΔTm (Homo sapiens [5]): 2.6 °C and 1.4 °C

CC(=O)O.COc1ccc2c(c1)[nH]c(=N)c1c3cc(OC)c(OC)cc3cn21
solubility at 10 min [3]: 7.2 mM
GI50 [4]: < 9.55 µM

COc1ccc2c(c1)[nH]c(=N)c1c3cc(OC)c(OC)cc3cn21 [listing 1 of 2 here]
ΔTm [1]: 4.1 °C and 2.4 °C
ΔTm [2]: 0 °C and 0.1 °C
ΔTm (Homo sapiens [5]): 5 °C and 3.1 °C

COc1ccc2c(c1)cn1c3ccc(O)cc3[nH]c(=N)c21 [listing 1 of 2 here]
ΔTm [1]: 1.9 °C and 2.9 °C
ΔTm [2]: 0.1 °C and 0.7 °C
ΔTm (Homo sapiens [5]): 4.4 °C and 4.3 °C

COc1ccc2c(c1)[nH]c(=O)c1c3ccccc3cn21
solubility at 10 min [3]: 3.4 mM (≈ 899 µg/mL)

COc1ccc(OC)c2c1[nH]c(=N)c1c3ccccc3cn21
ΔTm [1]: 2.6 °C and 2.2 °C
ΔTm [2]: 0.3 °C and 0.7 °C
solubility at 10 min [3]: 12.7 mM (≈ 3730 µg/mL)
GI50 ([4]; Homo sapiens, NCI60): 2.29 µM
ΔTm (Homo sapiens [5]): 4.3 °C and 4.4 °C

COc1ccc2c(c1)[nH]c(=N)c1c3cc(OC)c(OC)cc3cn21 [listing 2 of 2 here]
solubility at 10 min [3]: 14.4 mM (≈ 4660 µg/mL)
GI50 ([4]; Homo sapiens, NCI60): > 15.5 µM

COc1ccc2[nH]c(=N)c3c4ccccc4cn3c2c1
ΔTm [1]: 1.1 °C and 2.3 °C
ΔTm [2]: 0.1 °C and 0 °C
solubility at 10 min [3]: 13.8 mM (≈ 3630 µg/mL)
GI50 ([4]; Homo sapiens, NCI60): 1.55 µM
ΔTm (Homo sapiens [5]): 1.5 °C and 2 °C

Cc1cc2cn3c4ccc(O)cc4[nH]c(=N)c3c2cc1C [listing 2 of 2 here]
ΔTm [1]: 1.9 °C and 1.1 °C
ΔTm [2]: 0.2 °C and 0.1 °C
ΔTm (Homo sapiens [5]): 3.6 °C and 2.5 °C

COc1ccc2c(c1)[nH]c(=N)c1c3cc(OC)ccc3cn21
solubility at 10 min [3]: 13.2 mM (≈ 3870 µg/mL)
GI50 ([4]; Homo sapiens, NCI60): < 1.05 µM

CC(=O)O.N=c1[nH]c2cc(O)ccc2n2cc3c(F)cccc3c12
solubility at 10 min [3]: 12.7 mM
GI50 [4]: 6.31 µM

CCc1c2c(nc3ccc(O)cc13)-c1cc3c(c(=O)n1C2)COC(=O)[C@]3(O)CC
inhibition [19]: Active

COc1cc2cn3c4ccc(O)cc4[nH]c(=N)c3c2cc1OC
ΔTm [1]: 3.4 °C and 2.4 °C
ΔTm [2]: 0.3 °C and 0.2 °C
Activity (U2OS [15]): tde
Activity (U2OS [16]): tde
growth inhibition (GI) (U2OS [17]): Active
Activity (Calf thymus DNA): Active
tubulin polymerization inhibition (active/inactive) (Tubulin (Homo sapiens) [8]): Active
ΔTm (Homo sapiens [5]): 5.9 °C and 6.2 °C
Activity (Homo sapiens [20]): Active
inhibition of DNA cleavage (qualitative) [9]: Active
Activity (U2OS [14]): inactive

CC(=O)O.COc1ccc2c(c1)cn1c3ccc(O)cc3[nH]c(=N)c21
solubility at 10 min [3]: 10.9 mM
GI50 [4]: < 8.32 µM

COc1ccc2c(c1)cn1c3ccc(O)cc3[nH]c(=N)c21 [listing 2 of 2 here]
solubility at 10 min [3]: 21.9 mM (≈ 6120 µg/mL)
GI50 ([4]; Homo sapiens, NCI60): 11 µM

N=c1[nH]c2ccccc2n2cc3ccccc3c12
ΔTm [1]: 1.5 °C
ΔTm [2]: 0.3 °C
ΔTm (Homo sapiens [5]): 1.1 °C

Cc1cccc2c1[nH]c(=N)c1c3ccccc3cn21
ΔTm [1]: 1.5 °C
ΔTm [2]: 0.2 °C
ΔTm (Homo sapiens [5]): 1.8 °C

COc1ccc2c(c1)[nH]c(=N)c1c3cccc(F)c3cn21
ΔTm [1]: 2.1 °C
ΔTm [2]: 0.2 °C
solubility at 10 min [3]: 14.4 mM (≈ 4050 µg/mL)
GI50 ([4]; Homo sapiens, NCI60): 10.7 µM
ΔTm (Homo sapiens [5]): 1.8 °C

CC(=O)O.Cc1cc2cn3c4ccc(O)cc4[nH]c(=N)c3c2cc1C
solubility at 10 min [3]: 9.8 mM
GI50 [4]: < 5.25 µM

Cc1cc2[nH]c(=N)c3c4ccccc4cn3c2cc1C
ΔTm [1]: 1.9 °C
ΔTm [2]: 0.3 °C
ΔTm (Homo sapiens [5]): 3.1 °C
